System: diverticula
Assay: Number of diverticula observed by colonoscopy in a person with diverticulosis ingesting L-glutamine
Assay type: in vivo
Conditions: one person, 30 g of L-glutamine per day as an aqueous solution, ingested, after twelve months
Text: Compositions according to the present invention may be used to treat diverticulosis as determined by a number of different methods to image colon pouches. Nonlimiting examples of imaging methods include: colonoscopy; computed tomography; and, x-ray based on a barium enema. […] The person ingested 30 g of L-glutamine per day as an aqueous solution. After twelve months of L-glutamine administration, the number of diverticula had been reduced by ninety (90) percent.

Structure (SMILES): NC(=O)CC[C@H](N)C(=O)O [L-glutamine]
- reduction of the number of diverticula: 90%
